Measurements taken from US5244795A, “Processes for preparing cholesterol lowering compounds” (Merck & Co., Inc., priority 1992, dated 1993).

Key:
Experiment in all cases: FISP disc diffusion assay
Assay type in all cases: cell-based
Details in all cases: 250 μg/ml in CH2Cl2
Aspergillus fumigatus = test system: Aspergillus fumigatus; design: key: F: clear zone, fuzzy edges; S: slightly hazy zone (some growth observed throughout zone); H: hazy zone (considerable growth observed throughout zone); V: very hazy zone (zone of inhibition is barely discernable); R: zone displays a ring of resistant growth; no qualifier: clear zone throughout, sharp edges
Source text: (§1) The FISP assay employs disc diffusion susceptibility testing methods to generate a spectrum of activity against a panel of representative yeasts, filamentous fungi and bacteria.
(§2) The filamentous fungi used in the assay were Penicillium sp. Aspergillus niger, Trichoderma sp., Phoma sp., Trichoderma lignorum, Fusarium oxysporum, Ustilago maydis, Ceratocystis ulmi, Alternaria soloni, Verticillium serrae, Botrytis allii, Scopulariopsis communis, Cephalosporium sp., Cercospora beticola, Rhizomucor miehei, Aspergillus flavus and Aspergillus fumigatus.
(§3) For carrying out the assay, seeded assay plates are prepared in the following manner according to the type of assay strain.
(§4) Inocula for filamentous fungi are prepared by scraping the surface of stock plates maintained on potato dextrose agar with a moistened sterile dacron swab. The spores and mycelia are then suspended in 10 milliliters of sterile potato dextrose broth and adjusted to 65 percent transmission at 660 nm.
(§5) Assay plates for the yeasts and filamentous fungi are prepared by diluting the inoculum into appropriate molten agar medium, cooled to 45° C. to obtain a final concentration of 4 percent.
(§6) The seeded agar media thus prepared are dispensed into petri dishes for assays (11 ml per dish).
(§7) The samples to be tested for production of antifungal agent are applied to 6.2 mm filter paper discs (25 μl/disc) and air dried at 24° C. When the sample to be tested is crude broth, it may be centrifuged prior to application. The discs bearing the material to be tested are then applied employing sterile conditions to the seeded assay plates. The assay plates are then incubated at either 28° C. or 37° C. for 24 hours. In one of the assays for Bacillus subtilis, the sample is applied to a disc previously impregnated with 4M potassium chloride at 25 μl/disc and then air dried.
(§8) Following incubation, the inhibition zones are measured and recorded. The measurements are made from the extreme edge where growth differs from the background zone. The zones are noted as to appearance as fuzzy edge and clear center, hazy throughout, slightly hazy, very hazy or ringed.
(§9) FISP data is reported as the diameter (in mm.) of the zone of inhibition of growth in agar diffusion assays. The zone is determined by measuring growth that differs from the background lawn. A qualifier is also added to describe the zone quality as listed below: no qualifier: clear zone throughout, sharp edges

Botrytis allii = test system: Botrytis allii; design: key: F: clear zone, fuzzy edges; S: slightly hazy zone (some growth observed throughout zone); H: hazy zone (considerable growth observed throughout zone); V: very hazy zone (zone of inhibition is barely discernable); R: zone displays a ring of resistant growth; no qualifier: clear zone throughout, sharp edges
Source text: as §1, §2, §3, §4, §5, §6, §7, §8, §9

Cephalosporium sp. = test system: Cephalosporium sp.; design: key: F: clear zone, fuzzy edges; S: slightly hazy zone (some growth observed throughout zone); H: hazy zone (considerable growth observed throughout zone); V: very hazy zone (zone of inhibition is barely discernable); R: zone displays a ring of resistant growth; no qualifier: clear zone throughout, sharp edges
Source text: as §1, §2, §3, §4, §5, §6, §7, §8, §9

Ceratocystis ulmi = test system: Ceratocystis ulmi; design: key: F: clear zone, fuzzy edges; S: slightly hazy zone (some growth observed throughout zone); H: hazy zone (considerable growth observed throughout zone); V: very hazy zone (zone of inhibition is barely discernable); R: zone displays a ring of resistant growth; no qualifier: clear zone throughout, sharp edges
Source text: as §1, §2, §3, §4, §5, §6, §7, §8, §9

Cercospora beticola = test system: Cercospora beticola; design: key: F: clear zone, fuzzy edges; S: slightly hazy zone (some growth observed throughout zone); H: hazy zone (considerable growth observed throughout zone); V: very hazy zone (zone of inhibition is barely discernable); R: zone displays a ring of resistant growth; no qualifier: clear zone throughout, sharp edges
Source text: as §1, §2, §3, §4, §5, §6, §7, §8, §9

Fusarium oxysporum = test system: Fusarium oxysporum; design: key: F: clear zone, fuzzy edges; S: slightly hazy zone (some growth observed throughout zone); H: hazy zone (considerable growth observed throughout zone); V: very hazy zone (zone of inhibition is barely discernable); R: zone displays a ring of resistant growth; no qualifier: clear zone throughout, sharp edges
Source text: as §1, §2, §3, §4, §5, §6, §7, §8, §9

Penicillium sp. = test system: Penicillium sp.; design: key: F: clear zone, fuzzy edges; S: slightly hazy zone (some growth observed throughout zone); H: hazy zone (considerable growth observed throughout zone); V: very hazy zone (zone of inhibition is barely discernable); R: zone displays a ring of resistant growth; no qualifier: clear zone throughout, sharp edges
Source text: as §1, §2, §3, §4, §5, §6, §7, §8, §9

Rhizomucor miehei = test system: Rhizomucor miehei; design: key: F: clear zone, fuzzy edges; S: slightly hazy zone (some growth observed throughout zone); H: hazy zone (considerable growth observed throughout zone); V: very hazy zone (zone of inhibition is barely discernable); R: zone displays a ring of resistant growth; no qualifier: clear zone throughout, sharp edges
Source text: as §1, §2, §3, §4, §5, §6, §7, §8, §9

Scopulariopsis communis = test system: Scopulariopsis communis; design: key: F: clear zone, fuzzy edges; S: slightly hazy zone (some growth observed throughout zone); H: hazy zone (considerable growth observed throughout zone); V: very hazy zone (zone of inhibition is barely discernable); R: zone displays a ring of resistant growth; no qualifier: clear zone throughout, sharp edges
Source text: as §1, §2, §3, §4, §5, §6, §7, §8, §9

Trichoderma lignorum = test system: Trichoderma lignorum; design: key: F: clear zone, fuzzy edges; S: slightly hazy zone (some growth observed throughout zone); H: hazy zone (considerable growth observed throughout zone); V: very hazy zone (zone of inhibition is barely discernable); R: zone displays a ring of resistant growth; no qualifier: clear zone throughout, sharp edges
Source text: as §1, §2, §3, §4, §5, §6, §7, §8, §9

Verticillium serrae = test system: Verticillium serrae; design: key: F: clear zone, fuzzy edges; S: slightly hazy zone (some growth observed throughout zone); H: hazy zone (considerable growth observed throughout zone); V: very hazy zone (zone of inhibition is barely discernable); R: zone displays a ring of resistant growth; no qualifier: clear zone throughout, sharp edges
Source text: as §1, §2, §3, §4, §5, §6, §7, §8, §9

Bacillus subtilis = test system: Bacillus subtilis
Description: as §1
The bacteria employed in the assay are Streptomyces sp., Acholeplasma laidlawii and Bacillus subtilis.
as §3
Inocula for yeasts and bacterial strains are prepared from overnight broth cultures then diluted into potato dextrose agar to a final concentration of either 40 percent or 70 percent transmission at 660 nm.
Seeded agar for Bacillus subtilis are prepared from a commercially available spore suspension which is diluted directly into molten agar (45° C.) to obtain a final concentration of 0.1 percent.
as §6
The samples to be tested for production of antifungal agent are applied to 6.2 mm filter paper discs (25 μl/disc) and air dried at 24° C. When the sample to be tested is crude broth, it may be centrifuged prior to application. […]
Following incubation, the inhibition zones are measured and recorded. […]
FISP data is reported as the diameter (in mm.) of the zone of inhibition of growth in agar diffusion assays. The zone is determined by measuring growth that differs from the background lawn. […]

CC(/C=C/C=C(\C)C(O)C(C)C(=O)O[C@H]1C[C@H](C)C=C2C=C[C@@]3(C)O[C@@H](O)CC(=O)[C@]3(C)[C@H]21)=C\C=C\C(=O)O (stereo partly shown) [Compound A]
zone quality qualifier (Aspergillus fumigatus): S
zone quality qualifier (Botrytis allii): S
zone quality qualifier (Cephalosporium sp.): F
zone quality qualifier (Ceratocystis ulmi): V
zone quality qualifier (Cercospora beticola): S
zone quality qualifier (Fusarium oxysporum): S
zone quality qualifier (Penicillium sp.): H
zone quality qualifier (Rhizomucor miehei): H
zone quality qualifier (Scopulariopsis communis): F
zone quality qualifier (Trichoderma lignorum): F
zone quality qualifier (Verticillium serrae): S
diameter of the zone of inhibition of growth (Bacillus subtilis; KCl (disc impregnated with 4M potassium chloride)): 0 mm
zone of inhibition at 250 µg/mL (Bacillus subtilis; Bacillus subtilis, read-out: diameter of the zone of inhibition of growth): 0 mm
